# Source: publication PMC5653438 (Molecular microbiology, 2017)
# Structures can show the parent of a compound that is named as a salt.
# Columns and labels:
# PfLipL1 [1] = biological target: T1, PfLipL1 (Plasmodium falciparum, UniProt Q8IEG9); assay: biochemical; assay type: binding; settings: KD TSA, Kd calculated at 37 °C
# PfLipL1 [2] = biological target: T1, PfLipL1; assay: biochemical; assay type: binding; settings: KD ITC
# malaria parasite = settings: treatment with lipoate analogs; ref Allary et al., 2007; Afanador et al., 2014; cited from earlier work
# [3] = ref Lukesh et al., 2012; cited from earlier work
# [4] = non-reducing conditions (no reducing agent)
# [5] = reducing conditions, + TCEP (5 mM)
# T1 sequence (Q8IEG9 19-408): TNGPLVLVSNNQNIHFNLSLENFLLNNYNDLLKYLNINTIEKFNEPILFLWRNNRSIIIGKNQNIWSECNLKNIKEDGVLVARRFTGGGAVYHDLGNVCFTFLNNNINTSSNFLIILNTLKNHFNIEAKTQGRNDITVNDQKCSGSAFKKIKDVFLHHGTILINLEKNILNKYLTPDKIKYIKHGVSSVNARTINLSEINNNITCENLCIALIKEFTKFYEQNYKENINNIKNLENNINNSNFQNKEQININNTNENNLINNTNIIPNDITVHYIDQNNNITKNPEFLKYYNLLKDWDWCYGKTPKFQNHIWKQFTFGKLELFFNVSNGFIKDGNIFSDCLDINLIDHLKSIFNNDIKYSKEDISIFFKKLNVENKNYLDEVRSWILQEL
Structure (SMILES),Kd (PfLipL1 [1]; [4]) [nM],Kd (PfLipL1 [1]; [5]) [nM],also measured
"Nc1ncnc2c1ncn2[C@@H]1O[C@H](COP(=O)(O)OC(=O)CCCC[C@@H]2CCSS2)[C@@H](O)[C@H]1O [Lipoyl-AMP, (R)-5-(1,2-dithiolan-3-yl)pentanoic (((2R,3S,4R,5R)-5-(6-amino-9H-purin-9-yl)-3,4-dihydroxytetrahydrofuran-2-yl)methylphosphoric) anhydride monosodium salt]",20 ± 5,–,Kd (PfLipL1 [2]; non-reducing conditions): 65 ± 5 nM
"O=C(O)CCCC[C@@H](S)CCS (racemic) [Lipoate + TCEP, dihydrolipoate]",–,94000 ± 30000,–
"Nc1ncnc2c1ncn2[C@@H]1O[C@H](COP(=O)(O)OC(=O)CCCCC(Cl)CCCl)[C@@H](O)[C@H]1O (stereo partly drawn) [6,8-diClO-AMP, 6,8-dichlorooctanoic (((2R,3S,4R,5R)-5-(6-amino-9H-purin-9-yl)-3,4-dihydroxytetrahydrofuran-2-yl)methylphosphoric) anhydride monosodium salt]",90 ± 30,250 ± 20,"Kd (PfLipL1 [2]; non-reducing conditions): 100 ± 30 nM; Kd (PfLipL1 [2]; reducing conditions, + TCEP): 500 ± 200 nM"
"O=C(O)CCCCCCCBr [8-BrO, 8-bromooctanoate]",–,–,parasite cell growth inhibition (malaria parasite): causes parasite cell growth inhibition
"O=C(O)CCCCC(Cl)CCCl (stereo not shown) [6,8-diClO, 6,8-dichlorooctanoate]",13000 ± 4000,18000 ± 1000,parasite cell growth inhibition (malaria parasite): causes parasite cell growth inhibition
"Nc1ncnc2c1ncn2[C@@H]1O[C@H](COP(=O)(O)OC(=O)CCCC[C@@H](S)CCS)[C@@H](O)[C@H]1O [Lipoyl-AMP + TCEP, dihydrolipoyl-AMP]",–,5800 ± 400,–
"O[C@@H](CS)[C@@H](O)CS (racemic) [DTT, dithiothreitol]",–,–,pKa [3]: 9.3
